PMC5956890 (Journal of medicinal chemistry, 2017)
“Also recorded” adds a separate entry of the source.

Legend:
hA1AR = conditions: cited from earlier work
hA2AAR = conditions: cited from earlier work
PPARδ [1] = target: T1, PPARδ (Homo sapiens, UniProt Q03181); test: TR-FRET competitive binding assay PPARδ; conditions: concentration-response
T1 sequence (Q03181 1-441): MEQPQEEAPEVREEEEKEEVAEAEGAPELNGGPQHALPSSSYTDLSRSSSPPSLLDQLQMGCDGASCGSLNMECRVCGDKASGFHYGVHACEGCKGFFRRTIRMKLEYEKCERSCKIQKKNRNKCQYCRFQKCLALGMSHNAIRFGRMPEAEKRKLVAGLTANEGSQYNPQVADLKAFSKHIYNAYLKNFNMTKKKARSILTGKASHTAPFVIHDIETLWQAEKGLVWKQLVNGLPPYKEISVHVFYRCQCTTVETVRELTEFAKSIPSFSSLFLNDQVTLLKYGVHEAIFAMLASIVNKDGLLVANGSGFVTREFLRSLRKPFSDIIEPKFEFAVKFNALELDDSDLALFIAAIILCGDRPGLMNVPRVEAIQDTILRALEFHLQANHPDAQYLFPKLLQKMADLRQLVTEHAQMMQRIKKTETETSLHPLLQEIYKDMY

CDK5/p25 = CDK5/p25 (Homo sapiens, UniProt Q00535); test: KinaseProfiler kinase assay CDK5/p25; format: biochemical; conditions: up to 20 µM, Km ATP
PPARγ = target: T2, PPARγ (Homo sapiens, UniProt P37231); test: TR-FRET competitive binding assay PPARγ; conditions: concentration-response
T2 sequence (P37231 235-505 limits assumed): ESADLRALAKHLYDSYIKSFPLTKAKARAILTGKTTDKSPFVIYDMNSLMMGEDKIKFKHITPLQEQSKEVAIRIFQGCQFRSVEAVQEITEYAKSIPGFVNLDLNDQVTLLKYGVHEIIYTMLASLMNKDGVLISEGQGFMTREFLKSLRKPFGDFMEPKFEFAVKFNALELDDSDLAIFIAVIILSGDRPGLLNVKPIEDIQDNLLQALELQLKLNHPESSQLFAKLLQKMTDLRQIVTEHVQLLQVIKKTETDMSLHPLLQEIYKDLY

CDK5/p35 = CDK5/p35 (Homo sapiens, UniProt Q00535); test: KinaseProfiler kinase assay CDK5/p35; format: biochemical; conditions: up to 20 µM, Km ATP
PPARα = target: T3, PPARα (Homo sapiens, UniProt Q07869); test: TR-FRET competitive binding assay PPARα; conditions: for effect on PPARα binding: 4 µM, compared to positive control 19; for replacement of labeled PPARα ligand binding: up to 20 µM
T3 sequence (Q07869 200-468 limits assumed): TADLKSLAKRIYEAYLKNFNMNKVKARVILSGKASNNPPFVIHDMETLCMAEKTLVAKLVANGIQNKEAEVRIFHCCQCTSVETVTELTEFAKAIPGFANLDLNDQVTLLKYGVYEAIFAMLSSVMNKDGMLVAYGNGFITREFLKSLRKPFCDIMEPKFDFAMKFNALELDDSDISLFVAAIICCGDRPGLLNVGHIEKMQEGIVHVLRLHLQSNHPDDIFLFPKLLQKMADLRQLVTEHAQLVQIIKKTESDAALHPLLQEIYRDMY

LXRβ = target: T4, LXRβ (Homo sapiens, UniProt P55055); test: TR-FRET LXRβ coactivator assay; format: biochemical; conditions: 4 µM, compared to positive control 20
T4 sequence (P55055 1-460): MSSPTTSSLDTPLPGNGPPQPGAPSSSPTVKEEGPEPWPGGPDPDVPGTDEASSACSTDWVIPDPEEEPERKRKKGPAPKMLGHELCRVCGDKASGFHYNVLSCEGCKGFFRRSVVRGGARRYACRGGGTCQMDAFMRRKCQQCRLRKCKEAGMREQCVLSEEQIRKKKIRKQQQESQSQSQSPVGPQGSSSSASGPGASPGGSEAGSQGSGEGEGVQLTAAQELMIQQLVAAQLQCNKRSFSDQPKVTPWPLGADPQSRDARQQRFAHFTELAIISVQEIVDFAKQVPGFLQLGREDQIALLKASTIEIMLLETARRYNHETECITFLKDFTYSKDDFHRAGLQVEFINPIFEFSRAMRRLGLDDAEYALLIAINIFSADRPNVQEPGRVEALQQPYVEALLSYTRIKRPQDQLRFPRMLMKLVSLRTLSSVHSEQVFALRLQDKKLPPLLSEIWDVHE

GR = target: T5, GR (Homo sapiens, UniProt P04150); test: TR-FRET competitive binding assay GR; conditions: 4 µM, compared to dexamethasone
T5 sequence (P04150 1-777): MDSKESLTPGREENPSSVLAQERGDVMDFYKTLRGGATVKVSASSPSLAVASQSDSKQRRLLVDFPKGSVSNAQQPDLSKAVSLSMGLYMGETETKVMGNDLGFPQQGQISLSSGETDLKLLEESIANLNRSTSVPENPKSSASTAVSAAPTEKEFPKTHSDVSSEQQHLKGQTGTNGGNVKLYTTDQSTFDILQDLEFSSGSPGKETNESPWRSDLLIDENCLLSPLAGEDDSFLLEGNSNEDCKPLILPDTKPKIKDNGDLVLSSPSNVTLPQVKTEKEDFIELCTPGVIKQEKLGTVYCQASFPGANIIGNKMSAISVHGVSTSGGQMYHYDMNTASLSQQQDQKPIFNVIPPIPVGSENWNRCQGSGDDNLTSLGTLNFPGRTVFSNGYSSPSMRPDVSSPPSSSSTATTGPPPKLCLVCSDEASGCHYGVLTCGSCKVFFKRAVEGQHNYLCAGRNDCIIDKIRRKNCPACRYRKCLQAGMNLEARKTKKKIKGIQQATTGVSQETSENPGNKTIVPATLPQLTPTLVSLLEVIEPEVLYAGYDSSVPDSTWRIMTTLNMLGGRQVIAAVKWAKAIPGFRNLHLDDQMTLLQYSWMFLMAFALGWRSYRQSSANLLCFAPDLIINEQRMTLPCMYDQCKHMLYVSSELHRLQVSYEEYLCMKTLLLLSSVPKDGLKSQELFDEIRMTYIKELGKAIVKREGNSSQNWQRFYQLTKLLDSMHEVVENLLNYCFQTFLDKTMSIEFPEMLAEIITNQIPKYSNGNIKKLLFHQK

LXRα = target: T6, LXRα (Homo sapiens, UniProt Q13133); test: TR-FRET LXRα coactivator assay; format: biochemical; conditions: 4 µM, compared to positive control 20
T6 sequence (Q13133 1-447): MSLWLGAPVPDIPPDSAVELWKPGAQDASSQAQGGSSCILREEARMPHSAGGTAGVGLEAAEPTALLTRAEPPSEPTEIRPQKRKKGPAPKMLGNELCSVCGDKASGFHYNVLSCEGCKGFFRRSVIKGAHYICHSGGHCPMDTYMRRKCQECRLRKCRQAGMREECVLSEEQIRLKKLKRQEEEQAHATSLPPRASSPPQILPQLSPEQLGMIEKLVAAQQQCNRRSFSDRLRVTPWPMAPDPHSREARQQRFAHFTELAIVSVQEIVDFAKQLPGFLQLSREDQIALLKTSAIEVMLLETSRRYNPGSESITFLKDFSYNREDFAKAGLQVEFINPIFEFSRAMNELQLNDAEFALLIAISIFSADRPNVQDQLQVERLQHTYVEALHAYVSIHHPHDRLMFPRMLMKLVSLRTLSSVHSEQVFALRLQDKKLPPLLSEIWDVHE

hBM-MSCs [2] = test: adiponectin production during adipogenesis in hBM-MSCs; conditions: compared to IDX control
[3] = tested on: STZ-induced diabetic C57BL/6J mice; test: STZ-induced diabetes mouse model; format: in vivo; conditions: oral 20 mg/kg for 5 days, male C57BL/6J
PPARδ [4] = target: T7, PPARδ (Homo sapiens, UniProt Q03181); test: TR-FRET PPARδ coactivator assay; format: biochemical; conditions: compound alone
T7 sequence (Q03181 211-439 limits assumed): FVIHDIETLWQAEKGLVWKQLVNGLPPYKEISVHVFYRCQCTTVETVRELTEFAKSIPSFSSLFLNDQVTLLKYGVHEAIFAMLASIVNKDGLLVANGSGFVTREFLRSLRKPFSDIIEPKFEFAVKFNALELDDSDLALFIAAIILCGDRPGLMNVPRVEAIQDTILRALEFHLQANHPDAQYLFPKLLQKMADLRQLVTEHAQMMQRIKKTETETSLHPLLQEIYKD

hBM-MSCs [5] = test: Oil Red O staining of lipid droplets in hBM-MSCs; format: cell-based, human; conditions: compared with IDX control, 7th day

Sequence of CDK5/p35 (Q00535 whole entry): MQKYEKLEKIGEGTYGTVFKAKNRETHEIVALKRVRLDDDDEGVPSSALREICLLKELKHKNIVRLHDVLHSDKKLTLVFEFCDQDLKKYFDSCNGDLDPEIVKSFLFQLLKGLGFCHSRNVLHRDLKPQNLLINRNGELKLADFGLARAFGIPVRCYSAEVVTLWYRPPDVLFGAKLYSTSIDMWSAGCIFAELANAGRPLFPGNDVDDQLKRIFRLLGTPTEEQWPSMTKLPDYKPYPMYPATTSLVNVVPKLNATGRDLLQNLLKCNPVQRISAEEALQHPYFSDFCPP
Sequence of CDK5/p35 (Q15078 2-307 partner limits assumed): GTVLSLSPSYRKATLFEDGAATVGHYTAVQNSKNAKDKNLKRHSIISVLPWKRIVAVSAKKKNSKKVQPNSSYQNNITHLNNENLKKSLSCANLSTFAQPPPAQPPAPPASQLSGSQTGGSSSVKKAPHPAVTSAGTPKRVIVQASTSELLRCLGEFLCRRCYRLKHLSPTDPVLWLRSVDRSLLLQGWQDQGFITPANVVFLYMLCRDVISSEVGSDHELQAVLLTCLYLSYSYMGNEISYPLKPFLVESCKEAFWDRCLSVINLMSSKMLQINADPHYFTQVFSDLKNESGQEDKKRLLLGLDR
Sequence of CDK5/p25 (Q00535 whole entry): as the sequence (Q00535 whole entry) above
Sequence of CDK5/p25 (Q15078 99-307 partner limits assumed): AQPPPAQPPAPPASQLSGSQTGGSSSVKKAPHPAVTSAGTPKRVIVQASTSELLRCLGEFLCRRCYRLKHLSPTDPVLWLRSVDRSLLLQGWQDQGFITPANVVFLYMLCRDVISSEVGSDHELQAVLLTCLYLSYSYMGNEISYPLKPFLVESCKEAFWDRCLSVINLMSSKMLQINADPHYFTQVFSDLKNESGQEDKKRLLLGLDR

For `O[C@@H]1[C@H](O)CS[C@H]1n1cnc2c(NCc3ccccc3Cl)nc(Cl)nc21` [Compound 3c, (2R,3R,4S)-2-(2-Chloro-6-((2-chlorobenzyl)amino)-9H-purin-9-yl)tetrahydrothiophene-3,4-diol], the “% displacement at 1 µM (hA1AR)” value (hA1AR) is listed as 13%.

In the case of `O[C@@H]1[C@H](O)CS[C@H]1n1cnc2c(NCc3cccc(Cl)c3)nc(Cl)nc21` [Compound 3b, (2R,3R,4S)-2-(2-Chloro-6-((3-chlorobenzyl)amino)-9H-purin-9-yl)tetrahydrothiophene-3,4-diol], the “% displacement at 1 µM (hA2AAR)” value (hA2AAR; 1 µM) is given as 18%, the “PPARδ binding activity” value (PPARδ [1]) is given as “maximal PPARδ binding activity” and the “% displacement at 1 µM (hA1AR)” value (hA1AR) is given as 38%.

For `O=C(NC1CC1)[C@H]1S[C@@H](n2cnc3c(NCc4cccc(I)c4)ncnc32)[C@H](O)[C@@H]1O` [Compound 2b, (2S,3S,4R,5R)-N-Cyclopropyl-3,4-dihydroxy-5-(6-((3-iodobenzyl)amino)-9H-purin-9-yl)tetrahydrothiophene-2-carboxamide], the Ki (hA2AAR; read-out: Ki (hA2AAR)) is listed as 15.2 ± 2.6 nM.

For `CNC(=O)[C@H]1O[C@@H](n2cnc3c(NCc4cccc(I)c4)nc(Cl)nc32)[C@H](O)[C@@H]1O` [Compound 1b], the “effect on CDK5/p25 kinase activity” value (CDK5/p25) was “Neither 1a nor 1b affected CDK activity”, the “PPARγ binding activity” value (PPARγ) was “significant competitive binding activity” and the “effect on CDK5/p35 kinase activity” value (CDK5/p35) was “Neither 1a nor 1b affected CDK activity”. The “effect on PPARα binding” value (PPARα) was “no significant effects”, the “replacement of labeled PPARα ligand binding” value (PPARα) was no more than 50% and the “effect on LXRβ coactivation” value (LXRβ) was “no significant effects”. For the same compound, the “effect on GR binding” value (GR) was “no significant effects” and the “effect on LXRα coactivation” value (LXRα) was “no significant effects”.

In the case of `CNC(=O)[C@H]1O[C@@H](n2cnc3c(NCc4cccc(I)c4)ncnc32)[C@H](O)[C@@H]1O` [Compound 1a, N^6-(3-iodobenzyl)adenosine-5′-N-methyluronamide], the “adiponectin production during adipogenesis” value (hBM-MSCs [2]) is reported as “significantly promoted adiponectin production; also recorded: upregulated adiponectin production during adipogenesis in hBM-MSCs in a concentration-dependent manner”, the “effect on CDK5/p25 kinase activity” value (CDK5/p25) is reported as “Neither 1a nor 1b affected CDK activity” and the “serum triglyceride levels” value [3] is reported as “downregulated serum triglyceride levels”. The “serum glucose levels” value ([3]; 20 mg/kg) was “tended to decrease serum glucose levels”, the “recruitment of labeled coactivator peptide to PPARδ” value (PPARδ [4]) was “no effect on the recruitment of the labeled coactivator peptide” and the “effect on CDK5/p35 kinase activity” value (CDK5/p35) was “Neither 1a nor 1b affected CDK activity”. For the same compound, the “effect on PPARα binding” value (PPARα) was “no significant effects”, the “replacement of labeled PPARα ligand binding” value (PPARα) was no more than 50% and the “effect on LXRβ coactivation” value (LXRβ) was “no significant effects”. The “effect on GR binding” value (GR) was “no significant effects”, the “lipid droplets in differentiated adipocytes (ORO staining)” value (hBM-MSCs [5]) was “increased the number and size of lipid droplets” and the “effect on LXRα coactivation” value (LXRα) was “no significant effects”.
